In patent publication US20240294535A1, “IMIDAZOTRIAZINE THIOBENZAMIDE DERIVATIVE, AND PREPARATION METHOD AND APPLICATION THEREOF” (Yunbaiyao Zhengwu Science and Technology (Shanghai) Co., …, priority 2023, published 2024):

Tests used:
MKN-45 cells = test: Anti-proliferation activity, CTG, MKN-45 cells; type: cell-based; conditions: MKN-45 cells, 48 h, CTG
Protocol: (§1) Experimental objective: To evaluate the anti-proliferation activities of the compounds against MKN-45 cells, EBC-1 cells, Hs746T cells and Vero cells.
(§2) Experimental methods: Tumor cell lines were cultured and periodically passaged, and cells in logarithmic growth phase were taken for plate spreading. The cells were stained with Trypan blue, counted and adjusted to an appropriate density. 50 μL of cell suspension was added into each well of a culture plate, and 50 μL of nutrient solution without cells was added into a blank control well. The culture plate was precultured for 24 h in an incubator under the condition of 37° C., 5% CO2 and 100% relative humidity.
(§3) The DMSO stock solutions of the compounds 1-28 and Capmatinib were prepared, and diluted with Tecan D300e. Each compound was diluted to 7 concentration levels: 0.50 μM, 0.125 μM, 0.031 μM, 0.0078 μM, 0.0020 μM, 0.00049 μM, 0.00012 μM. The experiment was carried out in triplicate.
(§4) 50 μL of the solution was added into each designated well, and the culture plate was incubated for 48 h. 50 μL of CTG working solution was added to each well. The culture plate was wrapped with aluminum foil to avoid light and shaken in the shaker for 2 min to induce cell lysis. The culture plate was placed at room temperature for 10 min to stabilize light-emitting signal which was detected with a 2014 EnVision plate reader. Experimental data was processed by GraphPad Prism 7 to calculate IC50.

c-MET = c-MET (Homo sapiens (Human), UniProt P08581); test: c-MET kinase inhibitory activity (ELISA, poly(Glu,Tyr) substrate); type: biochemical; conditions: ATP 4 μM, 37° C. 1 h; read-out: c-MET kinase inhibitory enzymatic activity IC50
Sequence of c-MET (P08581 25-1390): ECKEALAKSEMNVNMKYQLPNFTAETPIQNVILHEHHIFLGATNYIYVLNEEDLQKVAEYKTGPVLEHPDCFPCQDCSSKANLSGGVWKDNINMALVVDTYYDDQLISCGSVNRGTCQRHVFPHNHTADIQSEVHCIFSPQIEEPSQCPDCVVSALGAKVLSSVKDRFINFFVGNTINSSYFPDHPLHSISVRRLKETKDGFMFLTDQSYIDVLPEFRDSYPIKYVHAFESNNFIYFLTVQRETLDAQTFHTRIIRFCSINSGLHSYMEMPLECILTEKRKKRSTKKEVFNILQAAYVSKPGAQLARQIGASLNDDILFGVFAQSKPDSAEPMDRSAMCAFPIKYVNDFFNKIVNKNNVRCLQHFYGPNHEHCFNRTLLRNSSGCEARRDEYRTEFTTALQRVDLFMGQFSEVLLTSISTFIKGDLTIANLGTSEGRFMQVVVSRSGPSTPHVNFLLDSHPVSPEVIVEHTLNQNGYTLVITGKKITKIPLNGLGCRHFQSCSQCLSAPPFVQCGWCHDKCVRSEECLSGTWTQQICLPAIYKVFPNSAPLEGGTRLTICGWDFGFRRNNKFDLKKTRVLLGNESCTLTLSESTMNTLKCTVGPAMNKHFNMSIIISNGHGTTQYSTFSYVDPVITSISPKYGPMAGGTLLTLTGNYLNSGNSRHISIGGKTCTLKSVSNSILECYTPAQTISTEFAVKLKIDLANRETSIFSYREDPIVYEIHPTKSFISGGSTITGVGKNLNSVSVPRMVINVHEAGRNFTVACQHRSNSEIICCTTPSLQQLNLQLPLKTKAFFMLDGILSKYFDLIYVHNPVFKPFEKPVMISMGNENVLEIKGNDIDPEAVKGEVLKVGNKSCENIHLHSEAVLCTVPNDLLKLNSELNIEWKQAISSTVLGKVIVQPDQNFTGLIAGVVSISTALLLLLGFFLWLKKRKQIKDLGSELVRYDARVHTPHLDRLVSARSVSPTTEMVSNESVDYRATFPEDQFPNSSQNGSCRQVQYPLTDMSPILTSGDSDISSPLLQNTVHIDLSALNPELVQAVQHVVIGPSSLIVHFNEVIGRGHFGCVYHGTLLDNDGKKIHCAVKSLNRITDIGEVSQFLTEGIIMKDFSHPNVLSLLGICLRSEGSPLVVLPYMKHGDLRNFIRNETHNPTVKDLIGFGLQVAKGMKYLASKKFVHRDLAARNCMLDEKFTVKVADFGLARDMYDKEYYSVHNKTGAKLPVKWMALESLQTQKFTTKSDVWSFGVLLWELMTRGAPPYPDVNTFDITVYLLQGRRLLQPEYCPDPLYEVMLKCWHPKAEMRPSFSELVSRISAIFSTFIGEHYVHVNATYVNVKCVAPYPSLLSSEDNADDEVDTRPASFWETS

Vero cells = test: Anti-proliferation activity, CTG, Vero cells; type: cell-based; conditions: Vero cells, 48 h, CTG
Protocol: as §1, §2, §3, §4

SPF Kunming mice = conditions: mouse, in vivo, po
Hs746T cells = test: Anti-proliferation activity, CTG, Hs746T cells; type: cell-based; conditions: Hs746T cells, 48 h, CTG
Protocol: as §1, §2, §3, §4

EBC-1 cells = test: Anti-proliferation activity, CTG, EBC-1 cells; type: cell-based, human; conditions: EBC-1 cells, 48 h, CTG
Protocol: as §1, §2, §3, §4

in vivo = conditions: both, Kunming, mouse, po
[1] = tested on: human EBC-1 cell subcutaneous xenograft model; test: In vivo anti-tumor assessment in EBC-1 cell xenograft tumor mouse model; set-up: species or system mice; conditions: 10 mg/kg P.O. QD × 15 days
Protocol: Experimental objective: To investigate in vivo efficacy of representative compounds on human lung squamous carcinoma cell (human EBC-1 cell) subcutaneous xenograft model.
Experimental methods: The EBC-1 cell xenograft tumor mouse model was used, according to the diameters of tumor, the tumor volume (TV), relative tumor volume (RTV), relative tumor proliferation rate (T/C (%)) and tumor growth inhibition value (TGI (%)) were calculated.
TGI (%) or T/C (%) of the compounds was evaluated. TGI (%) reflects a tumor growth inhibitory rate. TGI (%) was calculated as follows: TGI (%)=[1−(average tumor volume at the end of administration in a treatment group-average tumor volume at the beginning of administration in the treatment group)/(average tumor volume at the end in a solvent control group-average tumor volume at the beginning in the solvent control group)]×100%.
T/C (%) was calculated as follows: T/C (%)=TRTV/CRTV×100%; where TRTV is treatment RTV, and CRTV is negative control RTV. According to the measurement results of the tumor, RTV was calculated, and the calculating formula for RTV is as follows: RTV=Vt/V0; where V0 is the average tumor volume measured on the day of first administration; and Vt is the average tumor volume measured on a specified day. TRTV and CRTV were measured on the same day.

`CNC(=S)c1ccc(-c2cnc3ncc(C(OC)c4ccc5ncccc5c4)n3n2)cc1F` (stereo not drawn) [Compound 23] showed an IC50 (MKN-45 cells) of 1.7 nM, an IC50 (c-MET) of 0.0015 nM and an IC50 (Vero cells) of 157 nM. The LD50 (SPF Kunming mice) was 320 mg/kg, the IC50 (Hs746T cells) was 1.4 nM and the IC50 (EBC-1 cells) was 1.1 nM.

In the case of `CNC(=S)c1ccc(-c2cnc3ncc(Cc4ccc5c(c4)OCO5)n3n2)cc1F` [Compound 20], the IC50 (MKN-45 cells; Homo sapiens) is reported as 1.1 nM, the IC50 (c-MET) is reported as 0.0021 nM and the IC50 (Vero cells; Chlorocebus sabaeus) is reported as 164 nM. It also gave an IC50 (Hs746T cells; Homo sapiens) of 1.2 nM, an LD50 (in vivo) of 305 mg/kg and an IC50 (EBC-1 cells; Homo sapiens) of 1.8 nM.

Work on `CNC(=S)c1ccc(-c2cnc3ncc(C(O)c4ccc5ncccc5c4)n3n2)cc1F` (stereo not drawn) [Compound 21] yielded an IC50 (MKN-45 cells) of 1.2 nM, an IC50 (c-MET) of 0.0014 nM and an IC50 (Vero cells) of 132 nM. It also gave an LD50 (SPF Kunming mice) of 298 mg/kg, an IC50 (Hs746T cells) of 1.1 nM and an IC50 (EBC-1 cells) of 1.3 nM.

`CNC(=S)c1cc(F)c(-c2cnc3ncc(Cc4ccc5ncccc5c4)n3n2)cc1F` [Compound 6] showed an IC50 (MKN-45 cells) of 1.9 nM, an IC50 (c-MET) of 0.0015 nM and an IC50 (Vero cells) of 116 nM. The LD50 (SPF Kunming mice) was 292 mg/kg, the IC50 (Hs746T cells) was 1.9 nM and the IC50 (EBC-1 cells) was 1.9 nM.

`CNC(=S)c1ccc(-c2cnc3ncc(/C(=N/OC)c4ccc5ncccc5c4)n3n2)cc1F` [Compound 27] gave an IC50 (MKN-45 cells) of 1.3 nM, an IC50 (c-MET) of 0.0019 nM and an IC50 (Vero cells) of 163 nM. The LD50 (SPF Kunming mice) was 310 mg/kg, the IC50 (Hs746T cells) was 1.8 nM and the IC50 (EBC-1 cells) was 1.5 nM.

For `CNC(=S)c1ccc(-c2cnc3ncc(C(=O)c4ccc5ncccc5c4)n3n2)cc1F` [Compound 22], the IC50 (MKN-45 cells) was 1.5 nM, the IC50 (c-MET) was 0.0016 nM and the IC50 (Vero cells) was 231 nM. For the same compound, the IC50 (Hs746T cells) was 1.8 nM and the IC50 (EBC-1 cells) was 1.7 nM.

For `CNC(=S)c1ccc(-c2cnc3ncc(Cc4ccc5ncccc5c4)n3n2)cc1O` [Compound 11], the IC50 (MKN-45 cells; Homo sapiens) was 1.4 nM, the IC50 (c-MET) was 0.0025 nM and the IC50 (Vero cells; Chlorocebus sabaeus) was 231 nM. It also gave an IC50 (Hs746T cells; Homo sapiens) of 1.4 nM, an LD50 (in vivo) of 296 mg/kg and an IC50 (EBC-1 cells; Homo sapiens) of 1.8 nM.

Work on `CNC(=S)c1ccc(-c2cnc3ncc(Cc4ccc5ncccc5c4)n3n2)c(F)c1` [Compound 5] yielded an IC50 (MKN-45 cells) of 1.6 nM, an IC50 (c-MET) of 0.0021 nM and an IC50 (Vero cells) of 138 nM. For the same compound, the LD50 (SPF Kunming mice) was 298 mg/kg, the IC50 (Hs746T cells) was 1.6 nM and the IC50 (EBC-1 cells) was 1.2 nM.

`CNC(=S)c1ccc(-c2cnc3ncc(C(F)(F)c4ccc5ncccc5c4)n3n2)cc1F` [Compound 28] showed an IC50 (MKN-45 cells) of 1.5 nM, an IC50 (c-MET) of 0.0018 nM and an IC50 (Vero cells) of 237 nM. It also gave an LD50 (SPF Kunming mice) of 294 mg/kg, an IC50 (Hs746T cells) of 1.4 nM and an IC50 (EBC-1 cells) of 1.2 nM.

`CNC(=S)c1ccc(-c2cnc3ncc(Cc4cc(C(F)(F)F)c5ncccc5c4)n3n2)cc1F` [Compound 16] gave an IC50 (MKN-45 cells) of 1.3 nM, an IC50 (c-MET) of 0.0015 nM and an IC50 (Vero cells) of 156 nM. The LD50 (SPF Kunming mice) was 296 mg/kg, the “T/C(%)” value [1] was 17.98% and the “TGI(%)” value [1] was 99.73%. The “Tumor Volume (Day 15)” value ([1]; Day 15) was 162 ± 23 mm^3, the “inhibition of growth of the tumor in mice (tumor volume change)” value ([1]; end of the experiment, FIG. 2) was “better inhibitory effects” and the IC50 (Hs746T cells) was 1.7 nM. For the same compound, the IC50 (EBC-1 cells) was 1.3 nM.

Work on `CNC(=S)c1ccc(-c2cnc3ncc(Cc4cc(F)c5ncccc5c4F)n3n2)cc1F` [Compound 14] yielded an IC50 (MKN-45 cells; Homo sapiens) of 1.5 nM, an IC50 (c-MET) of 0.0026 nM and an IC50 (Vero cells; Chlorocebus sabaeus) of 226 nM. For the same compound, the IC50 (Hs746T cells; Homo sapiens) was 1.1 nM, the LD50 (in vivo) was 291 mg/kg and the IC50 (EBC-1 cells; Homo sapiens) was 1.2 nM.

Work on `CN(C)C(=S)c1ccc(-c2cnc3ncc(Cc4ccc5ncccc5c4)n3n2)cc1F` [Compound 2] yielded an IC50 (MKN-45 cells; Homo sapiens) of 1.1 nM, an IC50 (c-MET) of 0.0019 nM and an IC50 (Vero cells; Chlorocebus sabaeus) of 126 nM. For the same compound, the IC50 (Hs746T cells; Homo sapiens) was 1.4 nM, the LD50 (in vivo) was 284 mg/kg and the IC50 (EBC-1 cells; Homo sapiens) was 1.2 nM.

Compound `CNC(=S)c1ccc(-c2cnc3ncc(Cc4ccc5ncccc5c4)n3n2)cc1N` [Compound 9] has an IC50 (MKN-45 cells; Homo sapiens) of 1.8 nM, an IC50 (c-MET) of 0.0017 nM and an IC50 (Vero cells; Chlorocebus sabaeus) of 252 nM. It also gave an IC50 (Hs746T cells; Homo sapiens) of 1.4 nM, an LD50 (in vivo) of 297 mg/kg and an IC50 (EBC-1 cells; Homo sapiens) of 1.6 nM.
